Where two headings read alike, the source gives them in different places.
Columns and labels:
N2a695 cells [1] = assay: Aβ38, Aβ40, Aβ42 in conditioned media of N2a695 cells, MSD ELISA; assay type: cell-based; settings: N2a695 cell supernatant, 5 h, single experiment
N2a695 cells [2] = assay: as above; assay type: cell-based; settings: N2a695 cell supernatant, 5 h, single experiment; remark: listed apart in the source
Protocol: (§1) N2a695 were cultured in 1:1 OptiMem Reduced Serum Media (Life Technologies): Dulbecco’s Modified Eagle Medium ([+] 4.5 g/L D-glucose [+] L-Glutamine; [−] Sodium pyruvate (Life Technologies) supplemented with 5% fetal bovine serum, 0.4% Penstrep and 0.4% Geneticin and incubated at 37°C in 5% CO2. Antibodies were obtained from The Laboratory of Molecular and Cellular Neuroscience at The Rockefeller University. Human Aβ40 and Aβ42 ELISA plates (Life Technologies) and Plus MSD (Mesoscale Discovery) plates for Aβ Peptide (Aβ38, Aβ40 and Aβ42) Panel 1 (6E10) Kit (Catalog number K15200G) were obtained from Thermo Fisher, Life Technologies and Meso Scale Discovery.
(§2) N2a695 cells were used to screen all new compounds and in the follow-up studies with compounds found active in the preliminary screen. In a typical experiment, 6-well tissue culture plates (Corning) were seeded at 4.0 × 10^5–4.5 × 10^5 N2a695 cells/mL, 2 mL/well for overnight incubation. When cells were >95% confluent, media were exchanged with fresh media containing 10 µM solutions of compounds or DMSO carrier alone and cells were incubated at 37°C in 5% CO2 for 5 h. Culture media were collected and soluble Aβ concentrations in the media were determined by ELISA or MSD plates for human Aβ peptides as per manufacturer instructions. Signals for Aβ were measured using Perkin Elmer Envision and SQ120 MSD ELISA reader. Follow-up studies with N2a695 cells were performed similarly.
Similarly, we evaluated all IMTi-1 and IMTi-2 analogs, including the Boc-protected compounds, using N2a695 cells. […] To further examine the activities of the active analogs and whether IMTi’s has any bias on amyloidogenic vs. nonamyloidogenic cleavage of APP, we retested dozens of IMTi-1 and 2 analogs, including several found active in the screening assay and some tested for the first time using N2a695 cells as above, and performed MSD ELISA of the conditioned media to measure Aβ40, Aβ38, and Aβ42 peptides simultaneously.

[3] = tested on: β- and γ-cleavages of APP; assay: Aβ in N2a cells transiently transfected with APP-FL or APP99 (APP-βCTF): BACE vs γ-secretase cleavage; assay type: cell-based; settings: N2a cells transiently transfected with APP695 (APP-FL) or APP C99, 5 h
Protocol: To determine effects of compounds on BACE1 vs. GS inhibition, we used N2a cells transiently transfected with full length APP (APP-FL) or with APP99 (APP-βCTF) as described previously ([Netzer et al., 2017]; [Sun et al., 2019]). After 48 h, media were removed and fresh media containing compound 1a and analogs were added. Following 5 h of incubation, cell supernatants were collected, and analyzed using MSD-ELISA for Aβ and sAPPα and western blot for sAPPβ.
We focused on IMTi-1 and its analogs 1d, 1f and 1p. […] To test whether these compounds lower Aβ levels by affecting the BACE and/or γ-secretase cleavages, we transfected wild-type (wt) cells with APP-FL and APP βCTF (C99), respectively, and incubated the cells with IMTi-1 (isomer) and analogs 1d, 1f and 1p. We used BACE inhibitor, MK8931, and γ-secretase inhibitor, DAPT, as controls and performed the experiments and processed the results as described previously ([Sun et al., 2019]).

[4] = In vivo brain permeability and retention, LC-MS/MS of brain and plasma; set-up: species or system C57BL/6J WT mice; settings: for concentration at 4 h: C57BL/6J, mouse, ip, 2 months old WT mice, 50 mg/kg i.p., 4 h after injection, mesylate salt
Protocol: All procedures involving animals were approved by The Rockefeller University Institutional Animal Care and Use Committee and were in accordance with the National Institutes of Health guidelines. […] Mice were euthanized 4 h post drug administration and brain hemispheres and plasma were harvested and collected in pre-weighted tubes and snap-frozen in liquid nitrogen. To measure brain and plasma concentrations of the specific compounds, mouse brain tissue was homogenized and extracted using Ethanol, and plasma samples were extracted using Acetonitrile. Concentration of the drug and metabolites in brain and in plasma was determined by LC-MS/MS analysis.
After tubes were weighed to calculate brain weight and thawed to room temperature, 1 mL of EtOH (200 Proof) was added to the microcentrifuge tubes containing the harvested right brain hemispheres. 10 μL of 1 µM internal standard (ABG190, a synthetic analog of 1a) was added to each tube and samples were sonicated to homogeneity (∼2 min). Tubes were shaken at 40 min at room temperature (1K RPM) and centrifuged for 8 min at 13K RPM. The supernatant (0.9 mL) was transferred to a new collection tube and 0.5 mL EtOH was added to the pellet for a second round of extraction as described above. 600 μL of the supernatant was combined with the first collection before samples were submitted for LCMS-MS analysis ([Sun et al., 2019]).
300 μL of acetonitrile was added to collected blood samples. 10 μL of 1 µM internal standard (ABG190) was added to each tube and samples were sonicated to homogeneity (∼2 min). Tubes were […] at 13 K RPM for 9 min 300 μL of the supernatant was collected and combined with 500 µL of 5 mM ammonium formate before samples were submitted for LCMS-MS analysis ([Sun et al., 2019]).

N2a695 cells [5] = assay: Screening of Aβ production in N2a695 cells (Aβ ELISA of cell supernatants); assay type: cell-based; settings: 10 µM, N2a695 cells
Protocol: as §1, §2
Specifically, we exposed N2a695 cells to increasing concentrations of each compound and measured the production of Aβ38, 40, and 42. […] Remarkably, this occurs for all Aβ peptides tested shorter than 40 amino acids (Figure 2C). Moreover, for some compounds that modulate γ-secretase activity most conspicuously at 5 μM, this effect vanishes at 10 μM, relative to controls (Figure 2B, C). […]

Brain exposure ([4]; 2 months old mice, 4 h post administration)	concentration at 4 h ([4]; brain, read-out: Brain concentration) [ng/g]	concentration at 4 h ([4]; plasma, read-out: Plasma concentration) [ng/mL]	Compound	activity at 5 µM (N2a695 cells [1]; read-out: % Aβ38 of DMSO ctrl) [%]	activity at 5 µM (N2a695 cells [1]; read-out: % Aβ40 of DMSO ctrl) [%]	activity at 5 µM (N2a695 cells [1]; read-out: % Aβ42 of DMSO ctrl) [%]	activity at 10 µM (N2a695 cells [2]; read-out: % Aβ38 of DMSO ctrl) [%]	activity at 10 µM (N2a695 cells [2]; read-out: % Aβ40 of DMSO ctrl) [%]	activity at 10 µM (N2a695 cells [2]; read-out: % Aβ42 of DMSO ctrl) [%]	BACE and γ-secretase cleavage of APP, Aβ levels [3]	Aβ production in the screen (Fig. S1) (N2a695 cells [5])
–	–	–	Cc1ccccc1Nc1nccc(-c2cncc(NC(=O)c3ccc(C4CCCNC4)cc3)c2)n1 (stereo not drawn) [Compound 1L]	107	48	43	52	21	17	–	–
–	–	–	Cc1ccccc1Nc1nccc(-c2cccc(NC(=O)c3ccc(CN4CCN(C)CC4)cc3)c2)n1 [Compound 1a]	105	57	49	86	40	35	–	–
–	–	–	Cc1ccccc1Nc1nccc(-c2cncc(NC(=O)c3ccc(CN4CCNCC4)cc3)c2)n1 [Compound 1b]	95	56	53	61	34	33	–	–
–	–	–	Cc1ccccc1Nc1nccc(-c2cccc(NC(=O)c3ccc(N4CCN(C)CC4)cc3)c2)n1 [Compound 1d]	60	34	28	22	14	11	lower BACE and γ-secretase cleavage of APP	–
–	–	–	Cc1ccccc1Nc1nccc(-c2cncc(NC(=O)c3ccc(CCN(C)C)cc3)c2)n1 [Compound 1e]	99	57	54	91	46	44	–	–
high brain exposure	92	550	Cc1ccccc1Nc1nccc(-c2cccc(NC(=O)c3ccc(CCN(C)C)cc3)c2)n1 [Compound 1f]	113	52	45	80	29	26	lower BACE and γ-secretase cleavage of APP	–
–	–	–	Cc1ccccc1Nc1nccc(-c2cncc(NC(=O)c3ccc(CNCC(C)(C)C)cc3)c2)n1 [Compound 1h]	106	64	58	80	43	43	–	–
–	–	–	Cc1ccccc1Nc1nccc(-c2cccc(NC(=O)c3ccc(CN(CC(C)(C)C)C(=O)OC(C)(C)C)cc3)c2)n1 [Compound 1i-Boc]	–	–	–	–	–	–	–	increase in Aβ production
